# Measured values: PMC4223075, “A Conserved Peptide Pattern from a Widespread Microbial Virulence Factor Triggers Pattern-Induced Immunity in Arabidopsis” (PLoS Pathogens, 2014)
# No end group written: not given here.
# Tested on: Arabidopsis leaves
# Assay: Ethylene formation in Arabidopsis leaves / leaf discs
# Format: cell-based, Arabidopsis thaliana
# Settings: not given
# Protocol: For MAPK activity assays, infiltrated plant material was harvested after 15 minutes and frozen in liquid nitrogen before used for protein extraction in 20 mM Tris-HCl pH 7.5, 150 mM NaCl, 1 mM EDTA, 1% Triton X-100, 0,1% SDS, 5 mM DTT, Complete Protease Inhibitor Mini, EDTA-free (Roche, Mannheim), PhosStop Phosphatase Inhibitor Cocktail (Roche, Mannheim). After pelleting the cell debris (10 min, 16000 g, 4°C), the supernatant (30 µg protein) was separated on a 10% SDS-PAGE and transferred to a nitrocellulose membrane and activated MAPK6, 3 and 4 were detected by western blotting using the anti phospho p44/42-MAPK antibody from rabbit (Cell Signaling Technology, The Netherlands). For ROS burst measurements two leaf pieces, floated on ddH2O overnight, were placed in one well of a 96-well plate, containing 100 µl of a 20 µM L-012 and 0.5 µg ml^−1 peroxidase solution. Background was measured shortly in a 96-well Luminometer, (Mithras LB 940, Berthold Technologies) before elicitation with a peptide solution or control treatment respectively. The detection of ethylene was performed as described. Leaf pieces were incubated in 20 mM MES buffer, pH 5.7. To visualize callose apposition, leaves were treated as described and harvested 24 hours after infiltration of a peptide solution. Quantification of callose was performed by counting selected pixels and calculated in % relative to the respective image section of the leaf surface. Pictures were analyzed using Photoshop CS6 Magic tool, hereby removing background and leaf-veins within a certain color range. (Use: white, Mode: normal, Opacity: 100%). Medium alkalinization in suspension-cultured Arabidopsis cells and detection of GUS enzyme activity in PR1::GUS transgenic Arabidopsis plants were performed as described previously, [43]. Surface-sterilized Arabidopsis Col-0 seeds were grown in ½ MS liquid medium supplemented with 1 µM of nlp20 (PpNLP) peptide or its orthologs respectively, and flg22 or H2O serving as controls. Root length of two weeks-old seedlings was determined upon transfer onto agar plates.
row,Sequence,"elicitor activity (ethylene production in Arabidopsis leaf disks), in words"
1,YSWYFPKDSPVTGLGHR [peptide 12],inactive

# Same assay, conditions: synthetic peptides; Arabidopsis leaves; at least six different peptide concentrations; means ± SD of three replicates
row,Sequence,EC50
1,AAMYSWYFPKDSPVTGLGHRHDWE [compound 16],1.57 ± 0.252 µM
2,AIAYSWYFPKDSPVTGLGHRHDWE [compound 17],0.042 ± 0.009 µM
3,AIMASWYFPKDSPVTGLGHRHDWE [compound 18],1.5 ± 0.436 µM
4,AIMYAWYFPKDSPVTGLGHRHDWE [compound 19],0.018 ± 0.01 µM
5,AIMYSWAFPKDSPVTGLGHRHDWE [compound 21],2.63 ± 0.208 µM
6,AIMYSWYAPKDSPVTGLGHRHDWE [compound 22],0.0054 ± 0.003 µM
7,AIMYSWYFAKDSPVTGLGHRHDWE [compound 23],0.307 ± 0.153 µM
8,AIMYSWYFPADSPVTGLGHRHDWE [compound 24],0.089 ± 0.031 µM
9,AIMYSWYFPKASPVTGLGHRHDWE [compound 25],0.097 ± 0.036 µM
10,AIMYSWYFPKDAPVTGLGHRHDWE [compound 26],0.057 ± 0.028 µM
11,AIMYSWYFPKDSAVTGLGHRHDWE [compound 27],0.076 ± 0.045 µM
12,AIMYSWYFPKDSPATGLGHRHDWE [compound 28],0.03 ± 0.011 µM
13,AIMYSWYFPKDSPVAGLGHRHDWE [compound 29],0.025 ± 0.015 µM
14,AIMYSWYFPKDSPVTALGHRHDWE [compound 30],0.023 ± 0.0076 µM
15,AIMYSWYFPKDSPVTGAGHRHDWE [compound 31],0.024 ± 0.008 µM
16,AIMYSWYFPKDSPVTGLAHRHDWE [compound 32],0.22 ± 0.078 µM

row,Sequence,EC50
1,AIMYSWYFPKDSPVTGLGARHDWE [compound 33],0.048 ± 0.034 µM
2,AIMYSWYFPKDSPVTGLGHAHDWE [compound 34],0.283 ± 0.04 µM
3,AIMYSWYFPKDSPVTGLGHRADWE [compound 35],0.0077 ± 0.0017 µM
4,AIMYSWYFPKDSPVTGLGHRHAWE [compound 36],0.0062 ± 0.0056 µM
5,AIMYSWYFPKDSPVTGLGHRHDAE [compound 37],0.0073 ± 0.0018 µM
6,AIMYSWYFPKDSPVTGLGHRHDWA [compound 38],0.0073 ± 0.0017 µM
7,IMYSWYFPKDSPVTGLGHR [compound 10],0.133 ± 0.01 µM
8,KDSPVTGLGHRHDWE [compound 5],> 100 µM
9,MYSWYFPKDSPVTGLGHR [compound 11],1.55 ± 0.328 µM
10,RVATYNGVYAIMYSWYFPKD [compound 7],0.084 ± 0.011 µM
11,SWYFPKDSPVTGLGH [peptide 4],> 100 µM
12,SWYFPKDSPVTGLGHR [compound 14],> 100 µM
13,WIMYSWYFPKDSPVTGLGHRHDWE [compound 15],0.055 ± 0.024 µM
14,YAIMYSWYFPKDSPV [compound 3],0.217 ± 0.065 µM
15,YSWYFPKDSPVTGLGHR [peptide 12],> 50 µM
